# Test results as given in US7932283B2, “Fungicide N-cyclopropyl-sulfonylamide derivatives” (Bayer Cropscience AG, priority 2006, dated 2011).
# Assay: logP by HPLC on reversed-phase column (C 18), EEC Directive 79/B31 Annex V.A8, methods A and B
# Assay type: physicochemical
# Settings: reversed-phase HPLC column (C 18), HPLC reversed-phase C 18, method A: 43° C., 0.1% aqueous phosphoric acid, acetonitrile, linear gradient 10% to 90% acetonitrile
# Description: Calibration was carried out using unbranched alkan-2-ones (having 3 to 16 carbon atoms) with known logP values (determination of the logP values by the retention times using linear interpolation between two successive alkanones).
row,chromatographic logP,Compound
1,3.12,Cc1ccsc1C(=O)N(C1CC1)S(=O)(=O)c1ccccc1O [Compound 14]
2,2.54,Cc1nn(C)c(F)c1C(=O)N(C1CC1)S(=O)(=O)c1ccc([N+](=O)[O-])cc1 [Compound 185]
3,2.58,Cc1nn(C)c(O)c1C(=O)N(C1CC1)S(=O)(=O)c1ccccc1O [Compound 199]
4,3.18,Cc1nc(C(=O)N(C2CC2)S(=O)(=O)c2ccc(C(F)(F)F)cc2)cs1 [Compound 68]
5,2.96,Cc1nn(C)c(F)c1C(=O)N(C1CC1)S(=O)(=O)c1ccccc1-c1ccccc1 [Compound 206]
6,3.63,Cc1nc(C(=O)N(C2CC2)S(=O)(=O)c2ccc(O)c(C(F)(F)F)c2)cs1 [Compound 69]
7,3.27,Cc1occc1C(=O)N(C1CC1)S(=O)(=O)c1cccc(O)c1 [Compound 3]
8,2.71,Cn1cc(C(=O)N(C2CC2)S(=O)(=O)c2ccccc2O)c(C(F)(F)F)n1 [Compound 200]
9,3.58,O=C(c1cc(Br)c(Br)o1)N(C1CC1)S(=O)(=O)c1ccccc1O [Compound 1]
10,3.2,Cc1nc(C(F)(F)F)c(C(=O)N(C2CC2)S(=O)(=O)c2ccccc2O)s1 [Compound 59]
11,2.07,Cc1nn(C)c(F)c1C(=O)N(C1CC1)S(=O)(=O)c1ccccc1C#N [Compound 216]
12,2.59,Cc1ccc(S(=O)(=O)N(C(=O)c2c(C)nn(C)c2F)C2CC2)cc1 [Compound 183]

# Same assay, conditions: reversed-phase HPLC column (C 18), HPLC reversed-phase C 18, method B: 40° C., 0.1% aqueous formic acid and acetonitrile, linear gradient 10% to 90% acetonitrile
row,chromatographic logP,Compound
1,4.4,CCc1nn(C)c(F)c1C(=O)N(C1CC1)S(=O)(=O)c1ccc(Oc2ccc(Br)cc2)cc1 [Compound 390]
2,3.9,Cn1nc(C2CC2)c(C(=O)N(C2CC2)S(=O)(=O)c2ccc(O)c(O)c2O)c1F [Compound 224]
3,3.1,Cn1nc(C(F)(F)F)c(C(=O)N(C2CC2)S(=O)(=O)c2ccc(F)cc2O)c1F [Compound 362]
4,4.5,CCCOc1nn(C)cc1C(=O)N(C1CC1)S(=O)(=O)c1ccc(Oc2cccc(C(F)(F)F)c2)cc1Br [Compound 297]
5,4.3,CCCCc1ccc(S(=O)(=O)N(C(=O)c2c(C(F)(F)F)nn(C)c2F)C2CC2)cc1 [Compound 359]
6,2.9,Cn1cc(C(=O)N(C2CC2)S(=O)(=O)c2cccc(O)c2O)c(C(F)F)n1 [Compound 221]
7,3.4,Cc1cc(C(=O)N(C2CC2)S(=O)(=O)c2ccc(Oc3ccccc3)cc2)nn1C [Compound 76]
8,4.6,CCCOc1nn(C)cc1C(=O)N(C1CC1)S(=O)(=O)c1ccc(Oc2cccc(Br)c2)cc1Br [Compound 299]
9,4.5,CCCOc1nn(C)cc1C(=O)N(C1CC1)S(=O)(=O)c1ccc(Oc2ccc(C)cc2)cc1Br [Compound 293]
10,4.2,CCc1nn(C)c(F)c1C(=O)N(C1CC1)S(=O)(=O)c1ccc(Oc2ccc(O)cc2)cc1 [Compound 391]
11,3.1,Cn1nc(C(F)(F)F)c(C(=O)N(C2CC2)S(=O)(=O)c2c(O)cccc2O)c1F [Compound 360]
12,4.9,CCCOc1nn(C)cc1C(=O)N(C1CC1)S(=O)(=O)c1ccc(Oc2ccc(Cl)c(Cl)c2)cc1Br [Compound 303]
13,2.5,CCc1nn(C)c(F)c1C(=O)N(C1CC1)S(=O)(=O)c1ccc(OC)c(OC)c1 [Compound 386]
14,3.5,CCc1nn(C)c(F)c1C(=O)N(C1CC1)S(=O)(=O)c1cc(C(F)(F)F)ccc1O [Compound 384]
15,3,Cn1nc(C(F)(F)F)c(C(=O)N(C2CC2)S(=O)(=O)c2ccccc2I)c1F [Compound 369]
16,4.5,CCCOc1nn(C)cc1C(=O)N(C1CC1)S(=O)(=O)c1ccc(Oc2ccc(O)cc2)cc1Br [Compound 295]
17,4.7,Cn1nc(C2CC2)c(C(=O)N(C2CC2)S(=O)(=O)c2cccc(O)c2O)c1Cl [Compound 225]
18,2.3,CCc1nn(C)c(F)c1C(=O)N(C1CC1)S(=O)(=O)c1c(C)nn(C)c1O [Compound 382]
19,4.4,COc1cscc1C(=O)N(C1CC1)S(=O)(=O)c1ccc(Oc2ccc(Br)cc2)cc1 [Compound 28]
20,3.6,CCCOc1nn(C)cc1C(=O)N(C1CC1)S(=O)(=O)c1ccc(Oc2ccc(OC)c(OC)c2)cc1Br [Compound 288]
21,3.9,CCc1nn(C)c(F)c1C(=O)N(C1CC1)S(=O)(=O)c1cc(O)cc(O)c1 [Compound 376]

# Same assay, conditions: reversed-phase HPLC column (C 18), LogP method A: HPLC reversed-phase C 18, 43° C., 0.1% aqueous phosphoric acid / acetonitrile, linear gradient 10% to 90% acetonitrile
row,chromatographic logP,Compound
1,2.01,Cc1c(C(=O)N(C2CC2)S(=O)(=O)c2cccc(O)c2)sc(=O)n1Cc1ccccc1 [Compound 613]
2,3.2,O=C(C1=C(C(F)(F)F)OCCS1)N(C1CC1)S(=O)(=O)c1ccccc1O [Compound 653]
3,2.58,O=C(c1cccnc1Cl)N(C1CC1)S(=O)(=O)c1ccccc1O [Compound 644]
4,2.5,Cc1n[nH]c(C)c1C(=O)N(C1CC1)S(=O)(=O)c1ccc(C(F)(F)F)cc1 [Compound 402]
5,4.03,Cc1c(C(=O)N(C2CC2)S(=O)(=O)c2ccc(O)cc2O)sc(=O)n1Cc1ccccc1 [Compound 627]
6,4.16,Cc1cc(C)c(C(=O)N(C2CC2)S(=O)(=O)c2ccc(O)c(O)c2O)c(Cl)n1 [Compound 651]
7,3.01,CC(C)c1c(C(=O)N(C2CC2)S(=O)(=O)c2ccc(C(C)(C)C)cc2)sc(=O)n1C1CC1 [Compound 636]
8,2.01,Cc1c(C(=O)N(C2CC2)S(=O)(=O)c2ccc(O)c(C(F)(F)F)c2)sc(=O)n1C [Compound 622]
9,4.41,CCc1onc(C(C)C)c1C(=O)N(C1CC1)S(=O)(=O)c1ccc(O)cc1O [Compound 596]
10,1.97,Cn1nc(C(=O)N(C2CC2)S(=O)(=O)c2ccccc2O)n(C)c1=O [Compound 608]
11,3.76,Cc1nn(C)c(O)c1C(=O)N(C1CC1)S(=O)(=O)c1ccc(O)c(C(F)(F)F)c1 [Compound 406]
12,4.82,CCc1onc(C(C)C)c1C(=O)N(C1CC1)S(=O)(=O)c1ccc(O)c(C(F)(F)F)c1 [Compound 594]
13,3.72,Cc1noc(C)c1C(=O)N(C1CC1)S(=O)(=O)c1ccc(O)c(O)c1 [Compound 591]
14,3.01,Cc1c(C(=O)N(C2CC2)S(=O)(=O)c2ccc(C(C)(C)C)cc2)sc(=O)n1Cc1ccccc1 [Compound 628]
15,3,Cc1n[nH]c(C)c1C(=O)N(C1CC1)S(=O)(=O)c1ccc(O)c(C(F)(F)F)c1 [Compound 408]
16,3.01,CC(C)c1c(C(=O)N(C2CC2)S(=O)(=O)c2ccc(O)c(C(F)(F)F)c2)sc(=O)n1C1CC1 [Compound 633]
17,2.01,COCCn1c(C)c(C(=O)N(C2CC2)S(=O)(=O)c2cccc(O)c2)sc1=O [Compound 609]
18,1.01,Cc1c(C(=O)N(C2CC2)S(=O)(=O)c2cccc(Cl)c2)sc(=O)n1C [Compound 611]

# Same assay, conditions: reversed-phase HPLC column (C 18), LogP method B: HPLC reversed-phase C 18, 40° C., 0.1% aqueous formic acid / acetonitrile, linear gradient 10% to 90% acetonitrile
row,chromatographic logP,Compound
1,3.85,CCc1nn(C)c(F)c1C(=O)N(C1CC1)S(=O)(=O)c1c(O)sc(O)c1O [Compound 437]
2,4.2,COc1nn(C)cc1C(=O)N(C1CC1)S(=O)(=O)c1ccc(Oc2ccc(Br)c(O)c2)cc1Br [Compound 480]
3,3.9,CCOc1nn(C)cc1C(=O)N(C1CC1)S(=O)(=O)c1ccc(Oc2cccc(O)c2)cc1O [Compound 534]
4,4.4,CCOc1nn(C)cc1C(=O)N(C1CC1)S(=O)(=O)C1C=CC(Oc2cccc(C(F)(F)F)c2)=C(O)C1 (centres unmarked) [Compound 549]
5,2.9,COc1ccc(Oc2ccc(S(=O)(=O)N(C(=O)c3cn(C)nc3OC)C3CC3)c(Br)c2)cc1OC [Compound 462]
6,4.2,CCOc1nn(C)cc1C(=O)N(C1CC1)S(=O)(=O)c1ccc(Oc2cccc(Br)c2)cc1Br [Compound 540]
7,3.6,Cc1cnn(C)c1C(=O)N(C1CC1)S(=O)(=O)c1ccc(Oc2ccccc2)cc1 [Compound 660]
8,4.5,CCOc1nn(C)cc1C(=O)N(C1CC1)S(=O)(=O)c1ccc(Oc2ccc(Cl)c(C(F)(F)F)c2)cc1Br [Compound 553]
9,4.1,CCOc1nn(C)cc1C(=O)N(C1CC1)S(=O)(=O)c1ccc(Oc2ccccc2O)c(O)c1 [Compound 537]
10,3.7,O=C(c1cccnc1O)N(C1CC1)S(=O)(=O)c1ccc(O)c(O)c1O [Compound 647]
11,3.1,Cc1cnn(C)c1C(=O)N(C1CC1)S(=O)(=O)c1cccc(O)c1O [Compound 658]
12,3.8,COc1nn(C)cc1C(=O)N(C1CC1)S(=O)(=O)c1ccc(Oc2cccc(C(F)(F)F)c2F)cc1Br [Compound 471]
13,4.3,CCOc1nn(C)cc1C(=O)N(C1CC1)S(=O)(=O)C1C=CC(Oc2ccc(Br)c(O)c2)=CC1O (centres unmarked) [Compound 544]
14,3.2,O=C(c1cccnc1O)N(C1CC1)S(=O)(=O)c1cccc(O)c1O [Compound 645]
15,2.6,Cc1nn(C)c(O)c1S(=O)(=O)N(C(=O)c1c(C(F)(F)F)nn(C)c1F)C1CC1 [Compound 443]
16,2.2,COc1nn(C)cc1C(=O)N(C1CC1)S(=O)(=O)c1ccc(F)cc1Br [Compound 459]
17,3.6,Cc1cnn(C)c1C(=O)N(C1CC1)S(=O)(=O)c1ccc(O)c(O)c1O [Compound 659]
18,3,Cc1nocc1C(=O)N(C1CC1)S(=O)(=O)c1cccc(O)c1O [Compound 599]
19,4.2,COc1nn(C)cc1C(=O)N(C1CC1)S(=O)(=O)c1ccc(Oc2ccc(Cl)c(C(F)(F)F)c2)cc1Br [Compound 479]
20,3.5,COc1nn(C)cc1C(=O)N(C1CC1)S(=O)(=O)c1ccc(Oc2ccccc2O)cc1Br [Compound 465]
